Experimental data as given in PubChem BioAssay (NCI).
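How tested: cells in 96-well plates exposed to compound for 48 hours at five concentrations. Here, GI50 denotes the concentration required for 50% inhibition of growth. Definition used: TGI = concentration required for complete inhibition of growth.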

What was measured:
Assay in all cases: DTP human tumour cell line panel, 48 h; in the data active means GI50 below about 0.43 µM; inactive means the rest
SF-295 CNS = test system: SF-295 CNS
MDA-MB-231 breast = test system: MDA-MB-231 breast
NCI-H522 lung = test system: NCI-H522 lung
UACC-257 melanoma = test system: UACC-257 melanoma
CCRF-CEM leukemia = test system: CCRF-CEM leukemia
UACC-62 melanoma = test system: UACC-62 melanoma
MOLT-4 leukemia = test system: MOLT-4 leukemia
SK-MEL-5 melanoma = test system: SK-MEL-5 melanoma
SK-MEL-28 melanoma = test system: SK-MEL-28 melanoma
HOP-92 NSCLC = test system: HOP-92 NSCLC
CAKI-1 renal = test system: CAKI-1 renal
DU-145 prostate = test system: DU-145 prostate
HT29 colon = test system: HT29 colon
U251 CNS = test system: U251 CNS
NCI-H23 lung = test system: NCI-H23 lung
SK-OV-3 ovarian = test system: SK-OV-3 ovarian
BT-549 breast = test system: BT-549 breast
PC-3 prostate = test system: PC-3 prostate
RPMI-8226 leukemia = test system: RPMI-8226 leukemia
LOX IMVI melanoma = test system: LOX IMVI melanoma
SK-MEL-2 melanoma = test system: SK-MEL-2 melanoma
HOP-62 NSCLC = test system: HOP-62 NSCLC
A498 renal = test system: A498 renal
OVCAR-5 ovarian = test system: OVCAR-5 ovarian
COLO 205 colon = test system: COLO 205 colon
HCT-116 colon = test system: HCT-116 colon
NCI-H460 lung = test system: NCI-H460 lung
RXF 393 renal = test system: RXF 393 renal
786-0 renal = test system: 786-0 renal
SN12C renal = test system: SN12C renal
KM12 colon = test system: KM12 colon
MCF7 breast = test system: MCF7 breast
OVCAR-3 ovarian = test system: OVCAR-3 ovarian
SNB-75 CNS = test system: SNB-75 CNS
MDA-MB-435 = test system: MDA-MB-435
HS 578T breast = test system: HS 578T breast
UO-31 renal = test system: UO-31 renal
M14 melanoma = test system: M14 melanoma
OVCAR-8 ovarian = test system: OVCAR-8 ovarian
SNB-19 CNS = test system: SNB-19 CNS
SF-268 CNS = test system: SF-268 CNS
HL-60(TB) leukemia = test system: HL-60(TB) leukemia
IGROV1 ovarian = test system: IGROV1 ovarian
NCI/ADR-RES ovarian = test system: NCI/ADR-RES ovarian
OVCAR-4 ovarian = test system: OVCAR-4 ovarian
HCT-15 colon = test system: HCT-15 colon
SR leukemia = test system: SR leukemia
NCI-H226 lung = test system: NCI-H226 lung
K-562 leukemia = test system: K-562 leukemia
HCC-2998 colon = test system: HCC-2998 colon
SF-539 CNS = test system: SF-539 CNS
A549 NSCLC = test system: A549 NSCLC
MALME-3M melanoma = test system: MALME-3M melanoma
TK-10 renal = test system: TK-10 renal
SW-620 colon = test system: SW-620 colon
T-47D breast = test system: T-47D breast
EKVX NSCLC = test system: EKVX NSCLC
ACHN renal = test system: ACHN renal

O=C1CCc2c(sc3[nH]c(=S)n(Cc4ccccc4)c(=O)c23)C1
5.05 µM: TGI (NCI-H522 lung)
10.3 µM: TGI (CCRF-CEM leukemia)
> 100 µM: TGI (MDA-MB-231 breast) | TGI (MOLT-4 leukemia) | TGI (SK-MEL-28 melanoma) | TGI (DU-145 prostate) | TGI (U251 CNS) | TGI (PC-3 prostate) | TGI (HOP-62 NSCLC) | TGI (A498 renal) | TGI (OVCAR-5 ovarian) | TGI (HCT-116 colon) | TGI (NCI-H460 lung) | TGI (RXF 393 renal) | TGI (786-0 renal) | TGI (SN12C renal) | TGI (OVCAR-3 ovarian) | TGI (SNB-75 CNS) | TGI (MDA-MB-435) | TGI (HS 578T breast) | TGI (M14 melanoma) | TGI (OVCAR-8 ovarian) | TGI (SNB-19 CNS) | TGI (SF-268 CNS) | TGI (IGROV1 ovarian) | TGI (NCI/ADR-RES ovarian) | TGI (OVCAR-4 ovarian) | TGI (NCI-H226 lung) | TGI (K-562 leukemia) | TGI (A549 NSCLC) | TGI (MALME-3M melanoma) | TGI (TK-10 renal) | TGI (SW-620 colon) | TGI (EKVX NSCLC) | TGI (ACHN renal)
5.81 µM: TGI (SK-MEL-2 melanoma)
3.74 µM: TGI (SK-MEL-5 melanoma)
4.99 µM: TGI (COLO 205 colon)
5.61 µM: TGI (SF-539 CNS)
8.6 µM: TGI (NCI-H23 lung)
8.31 µM: TGI (CAKI-1 renal)
7.06 µM: TGI (UACC-257 melanoma)
8.22 µM: TGI (SR leukemia)
6.56 µM: TGI (KM12 colon)
7.05 µM: TGI (SK-OV-3 ovarian)
inactive: GI50 (SF-295 CNS) 2.46 µM | GI50 (MDA-MB-231 breast) 4.54 µM | GI50 (NCI-H522 lung) 0.852 µM | GI50 (UACC-257 melanoma) 2.36 µM | GI50 (CCRF-CEM leukemia) 2.88 µM | GI50 (UACC-62 melanoma) 2.54 µM | GI50 (MOLT-4 leukemia) 4.39 µM | GI50 (SK-MEL-5 melanoma) 1.86 µM | GI50 (SK-MEL-28 melanoma) 4.4 µM | GI50 (HOP-92 NSCLC) 1.92 µM | GI50 (CAKI-1 renal) 2.54 µM | GI50 (DU-145 prostate) 5.06 µM | GI50 (HT29 colon) 3.84 µM | GI50 (U251 CNS) 2.14 µM | GI50 (NCI-H23 lung) 2.79 µM | GI50 (SK-OV-3 ovarian) 2.68 µM | GI50 (BT-549 breast) 1.82 µM | GI50 (PC-3 prostate) 0.616 µM | GI50 (RPMI-8226 leukemia) 1.18 µM | GI50 (LOX IMVI melanoma) 3.38 µM | GI50 (SK-MEL-2 melanoma) 2.49 µM | GI50 (HOP-62 NSCLC) 3.84 µM | GI50 (A498 renal) 3.44 µM | GI50 (OVCAR-5 ovarian) 3.67 µM | GI50 (COLO 205 colon) 2.36 µM | GI50 (HCT-116 colon) 3.38 µM | GI50 (NCI-H460 lung) 3.64 µM | GI50 (RXF 393 renal) 5.81 µM | GI50 (786-0 renal) 4 µM | GI50 (SN12C renal) 3.25 µM | GI50 (KM12 colon) 1.73 µM | GI50 (MCF7 breast) 3.26 µM | GI50 (OVCAR-3 ovarian) 3.72 µM | GI50 (SNB-75 CNS) 2.34 µM | GI50 (MDA-MB-435) 3.43 µM | GI50 (HS 578T breast) 3.09 µM | GI50 (UO-31 renal) 2.62 µM | GI50 (M14 melanoma) 3.75 µM | GI50 (OVCAR-8 ovarian) 3.19 µM | GI50 (SNB-19 CNS) 3.93 µM | GI50 (SF-268 CNS) 3.55 µM | GI50 (HL-60(TB) leukemia) 1.95 µM | GI50 (IGROV1 ovarian) 5.11 µM | GI50 (NCI/ADR-RES ovarian) 3.25 µM | GI50 (OVCAR-4 ovarian) 3.99 µM | GI50 (HCT-15 colon) 2.78 µM | GI50 (SR leukemia) 2.3 µM | GI50 (NCI-H226 lung) 4.05 µM | GI50 (K-562 leukemia) 1.76 µM | GI50 (HCC-2998 colon) 2.88 µM | GI50 (SF-539 CNS) 2.15 µM | GI50 (A549 NSCLC) 3.29 µM | GI50 (MALME-3M melanoma) 4.53 µM | GI50 (TK-10 renal) 4.51 µM | GI50 (SW-620 colon) 4.2 µM | GI50 (T-47D breast) 2.41 µM | GI50 (EKVX NSCLC) 3.58 µM | GI50 (ACHN renal) 3.73 µM
13.2 µM: TGI (UACC-62 melanoma)
5.33 µM: TGI (HOP-92 NSCLC)
12.5 µM: TGI (LOX IMVI melanoma)
14 µM: TGI (HCC-2998 colon)
20.2 µM: TGI (HL-60(TB) leukemia)
9.79 µM: TGI (RPMI-8226 leukemia)
7.35 µM: TGI (BT-549 breast)
13.8 µM: TGI (HCT-15 colon)
12.4 µM: TGI (MCF7 breast)
7.23 µM: TGI (SF-295 CNS)
27 µM: TGI (HT29 colon)
9.7 µM: TGI (UO-31 renal)
43.9 µM: TGI (T-47D breast)
